7 molecules from US9340768B2, “Transformation of glycerol and cellulosic materials into high energy fuels” (THE TEXAS A&M UNIVERSITY SYSTEM, priority 2008, dated 2016) can be followed below.

“Also recorded” adds a separate entry of the source.

Common to all, as to assay type: cell-based, Debaryomyces hansenii
Series [1] concerns D. hansenii. The experiment in a line: Growth and oleagenicity of D. hansenii on pure carbon sources (Nile red plate staining). Particulars: for Growth: carbon source at 30 g/L in minimal media; for Oleagenicity: carbon source at 30 g/L, Nile Red fluorescence. The procedure: D. hansenii (Dh) and S. cerevisiae (Sc) grown on minimal media containing no carbon source, 30 g/L of glucose, arabinose, xylose, carboxymethylcellulose or cellobiose. D. hansenii grew well on media containing glucose, arabinose and cellobiose. Lipid accumulation was indicated by Nile Red fluorescence in D. hansenii grown on glucose but not on cellobiose.
Culture media and cultivation conditions. For liquid culture, single colony of D. hansenii or S. cerevisiae were pre-cultured in 2 mL YPD or other desired media (see below) and incubated at 30° C. for 24 hr. Cells were counted using a hemacytometer and spun down at 3000 rpm for 15 minutes. Cells at a concentration of 1×10^6/mL were used to inoculate the desired media with 1% of the total volume. Medium A with limited nitrogen source (glucose 30 g/L, yeast extract 1.5 g/L, NH4Cl 0.1 g/L, KH2PO4 7.0 g/L, Na2HPO4 1.983 g/L, MgSO4.7H2O 1.5 g/L, FeCl3.6H2O 0.08 g/L, ZnSO4.7H2O 0.01 g/L, CaCl2.2H2O 0.1 g/L, MnSO4.H2O 0.07 mg/L, CuSO4.5H2O 0.1 mg/L, Co(NO3)2.6H2O 0.1 mg/L, pH 5.5; see Kimura et al., 2004) was used to support the growth of D. hansenii and induce cellular lipid accumulation. Medium A with sufficient nitrogen supply (NH4Cl 5 g/L) was used to support growth without the induction of lipid accumulation. To test the growth of D. hansenii on carbon sources other than glucose, glucose was dropped out from medium A and replaced with desired carbon sources at the same concentration except for glycerol, which was at 10% or 20% (v/v). […] For making media containing sorghum juice, raw juice was filter sterilized and added in the media at various concentrations of 5%, 10%, 25%, and 50% (v/v). Crude glycerol (Future Fuel Chemical Company, Arkansas, USA) contained 6% water, 88% glycerol, 2.564% ash by weight.
Nile red plate staining assay. Nile red (9-diethylamino-5H-benzo[α]phenoxazine-5-one) obtained from Sigma-Aldrich (Missouri, USA) was dissolved in Dimethyl sulfoxide (DMSO) at a concentration of 0.5 mg/mL and supplemented in medium A at a final concentration of 0.5 μg/mL. For direct observation of cellular lipid accumulation, D. hansenii grown on solid medium A with Nile red were observed using a UV light source (312 nm) as described (Spiekemann et al., 1999).

The test system of series [2] is D. hansenii. The experiment in a line: OmniLog Phenotype Microarray, osmolytes (PM9). Particulars: 30° C., OMNILOG PM. How it is done: PM assays. Inoculums for PM panels were prepared according to the manufacturer's protocols with modifications; Procedures for S. cerevisiae and other Fungi version 8 Feb. 2006 (Biolog) was used to prepare inoculums for PM01, PM02, and PM09, while version 29 Apr. 2008 (Biolog) was used for PM10. In brief, D. hansenii were streaked onto defined Medium A (Table 6) and cultivated at 30° C. for 48 hours. Cells were redistributed onto fresh agar using a sterile swab and incubated for an additional 4 hours at 30° C. to ensure active growth and avoid late-growth clumping (Oliver R Homann, Houjian Cai, 2005). (Kimura et al., 2004)
Cells were then transferred into the appropriate PM inoculation fluid (Table 7) and re-suspended to 62% transmittance (approximately 200 cells per 100 μL assay). PM1 and PM2 measure carbon source utilization and/or sensitivity; as such, the inoculation fluid lacks a defined carbon source (e.g., glycerol or glucose). In contrast, the inoculating fluids for PM9 (osmolytes) and PM10 (pH) required the inclusion of a carbon source (Table 7); in this case glucose was supplemented to 100 mM.
D. hansenii-containing inoculation fluid was inoculated into PM panels and incubated at 30° C. for 6.5 days. Color intensity for each well was measured every 15 minutes. Exemplary time course (kinetic) results (means) from representative PM assays are plotted.
In order to simplify the comparison of individual assay conditions, the full time-course kinetic plots were converted into a single unitless numerical value, which is weighted to more greatly value latter time points (e.g., endpoints), as described by Homann et al. (2005). Signal value=[(average signal+maximum signal)/2−average signal over first 2 h]; Represent the full time course by a single number; Weight the value towards latter time points; Subtract the “baseline” signal level for each well (Oliver R Homann, 2005) and Replicate PM assay runs were conducted, and the average of the signal values was used.

For series [3], the system named is D. hansenii. Nature of the series: Cell viability by FUN1 stain and microscopic quantification. As to conditions: 100 nM wortmannin, FUN1 stain. How it is done: (§1) Fluorescent microscopy. For Nile red stained cells or cultures, microscopic photographs were taken with an Olympus BX51 microscope (Olympus America, New York, USA) equipped with an Olympus DP70 camera using a 530-550 nm excitation filter, a 570 nm diachronic mirror and a 590 nm emission filter with a 60× objective lens. For microscopic quantification of secreted lipid bodies, 50 μL of the cell suspension in media A containing 0.2% agarose and Nile red, with or without the addition of 100 nM wortmannin, were inoculated in triplicate in microscopic frames that allow the agarose-based matrix to be sealed between two pieces of cover glasses. Slides were incubated in 90% moisture at 30° C. At 0, 48, 72, 96, 120, 144 hr post inoculation, the number of the cells and extracellular lipid bodies (stained with Nile red) were quantified. In parallel, the cells were stained with FUN1 (Invitrogen) for viability determination.

Series [4] deals with D. hansenii. Nature of the series: Microscopic quantification of secreted (extracellular) lipid bodies, Nile red. Particulars: 100 nM wortmannin, 144 hr post inoculation; untreated control more than 80 per 100 cells. How it is done: as §1

For `O=C[C@@H](O)[C@H](O)[C@H](O)CO` [Arabinose], in the series with D. hansenii [1], the Growth result is “grew well” and the Oleagenicity entry is “No”.
For the molecule `O=S(=O)([O-])[O-].[Na+].[Na+]` [Na2SO4], in the series on D. hansenii [2], the “level of salt solution tolerated without severe compromise in growth” value is listed as no more than 5%.
On to `O=C[C@H](O)[C@@H](O)[C@H](O[C@@H]1O[C@H](CO)[C@@H](O)[C@H](O)[C@H]1O)[C@H](O)CO` [Cellobiose], for which, in the series on D. hansenii [1], the Growth entry is “grew well” and the Oleagenicity entry was “No”.
With `[Cl-].[K+]` [KCl], the “level of salt solution tolerated without severe compromise in growth” value in the series on D. hansenii [2] is no more than 6%.
For `[Cl-].[Na+]` [NaCl], the “level of salt solution tolerated without severe compromise in growth” value in the series on D. hansenii [2] is listed as “up to 6.5%”.
Consider `O=C[C@H](O)[C@@H](O)[C@H](O)CO` [Xylose], for which the Oleagenicity result with D. hansenii [1] is reported as “No”.
For `COC[C@H]1OC(=O)c2coc3c2[C@@]1(C)C1=C(C3=O)[C@@H]2CCC(=O)[C@@]2(C)C[C@H]1OC(C)=O` [wortmannin], the cell viability result with D. hansenii [3] is listed as “remained unaffected; also recorded: not affected”. The “lipid bodies released from D. hansenii cells” value in the series on D. hansenii [4] is “lower than 10 per 100 cells”.
